# Data from US20110224311A1, “Natural Product Sweetness Enhancers” (priority 2009, published 2011).
# Values joined by “and” are separate entries in the source; they are usually repeats but may differ in a detail not shown here. Equal values may be shown once. “Also recorded” adds a separate entry of the source. Read-outs that look alike come from different tables or passages of the source.
# Key:
# [1] = system: trained judges (expert taste panel); assay: Double-blind sequential monadic sweetness intensity test, sip and spit (Example 1 protocol); format: in vivo, human
# Description: Subjects were given three samples to evaluate. Each subject was directed to swirl the first sample in his or her mouth for 3-5 seconds, expectorate the entire sample into a discard cup, and then assess the sweetness intensity of the sample. The intensity was rated on a score card by marking a numerical value along a scale from 0 to 8 (e.g., 0=none, 2=slight, 4=definite, 8=very strong). Following the decision regarding the sweetness intensity, subjects were instructed to rinse their mouth with water and spit in the discard cup. Subjects then were given unsalted crackers to cleanse the palate. A period of 10 minutes elapsed between presentations of each sample to reduce the potential influence of residual taste effects. A second sample was then presented and evaluated as above and the same procedure was followed until all three products were evaluated. Sample presentation was randomized to avoid order of presentation bias. To participate in the sensory panel, judges or subjects were chosen from an expert taste panel. These subjects were screened for taste acuity and were trained in evaluating solutions using the sip and spit protocol and were trained in using a rating ballot. The number of judges who participated in the study was 20. The female subjects were all non-pregnant and all volunteers were of <55 years of age with no history of allergy to sucrose. Judges were asked to execute an informed consent form. Specifically, the following instructions were given to the judges: Please take a sip of water. Carefully take the cap off the sample cup placed in front of you. Sip, swirl for 3-5 seconds, and then spit the sample into the cup provided, then assess the intensity of the sweetness of the sample. Please evaluate the sample for the intensity of the sweet flavor and put a vertical mark on the number that best describes the intensity. Rinse your mouth with the water provided and spit into the discard cup. Use crackers provided to cleanse your palate before evaluating the next sample. If any other flavor was present in the sample please describe it. Please rinse your mouth again several times and have some more water and unsalted crackers. You will now have a rest period of 10 minutes before you will be given the next sample.
# [2] = cited from earlier work
# [3] = system: trained judges (expert taste panel); assay: Double-blind sequential monadic sweetness intensity test, taste and swallow (Example 6 protocol), beverages and solutions; format: in vivo, human; details: for intrinsic sweetness in unsweetened beverage: Reb C at 190 ppm or below (95, 190, 285 ppm tested)
# [4] = system: test group having five (5) subjects; assay: Forced-choice taste test of Reb C water solution against water; format: in vivo, human; details: 250 μM Reb C water solution
# Protocol: The taste of a 250 μM Reb C solution was evaluated by a test group having five (5) subjects as follows (Forced-choice): Subjects were presented with 2 cups, each containing 10 ml of either 250 μM Reb C water solution or water (room temperature). […] Subjects were asked to sip most or all of the 10 ml from the first cup, swish the liquid in their oral cavity, and expectorate into a cup, then rinse their mouths vigorously with water. Soon thereafter, the contents of the second cup were sampled in the same manner. Then, subjects were asked to choose the sweeter of the two samples, or if not sweet, to describe the qualitative taste profile of the sample having a detectable taste.
# [5] = system: test group having four (4) subjects; assay: Open qualitative taste report of Reb C water solutions; format: in vivo, human; details: 250 and 300 μM Reb C in water, subjects 1 to 4
# Protocol: The taste of 250 μM and 300 μM Reb C solutions were evaluated as follows by another test group having four (4) subjects as follows: 10 ml solutions of 250 and 300 μM Reb C in water were sampled by four subjects who were asked to report their qualitative taste experience of the solutions. […] The subjects have the following qualitative taste descriptions: […]
# 10 panelists = assay: Quantitative taste profile by trained panelists (Example 11); format: in vivo, human
# Protocol: The taste of 150, 300, and 600 μM Reb C was evaluated by a test group. 10 panelists were trained over a period of a few weeks to provide a quantitative flavor profile of Reb C. Panelists first were trained using standard tastants representing the different taste modalities given in FIG. 10 (i.e., sweet, bitter, salt, sour, and licorice). They then were trained to use the scales when flavors were mixed together. All intensity ratings are on scales ranging from 0 (no taste) to 8 (highest intensity). The intensity rating for sweet is essentially the same as used in Examples 1 and 6. The taste profiles were obtained for 150, 300, and 600 μM Reb C. Reb A (0.2 mg/ml, a concentration used in some food/beverage applications for sweetening) was also evaluated in the test for comparison. The scale is not linear at the bottom. A rating of 1 is around the threshold for sweetness detection.
# [6] = cited from earlier work; remark: listed apart in the source
# [7] = 5% (w/v-%) fructose solution + 300 μM enhancer, versus 7% (w/v-%) fructose
# [8] = 5% (w/v-%) sucrose solution + 300 μM enhancer, versus 7% (w/v-%) sucrose, scale 0 to 8
# [9] = 8% (w/v-%) sucrose solution + 300 μM enhancer, versus 11% (w/v-%) sucrose
structure (smiles),measurement,setting,value
"C=C1C[C@@]23CC[C@H]4[C@@](C)(CCC[C@@]4(C)C(=O)O[C@@H]4O[C@H](CO)[C@@H](O)[C@H](O)[C@H]4O)[C@@H]2CC[C@]1(O[C@@H]1O[C@H](CO)[C@@H](O)[C@H](O)[C@H]1O[C@@H]1O[C@@H](C)[C@H](O)[C@@H](O)[C@H]1O)C3 [Dulc A, dulcoside A]",sweetness of sweetener solution with enhancer compared with higher sweetener concentration,[1]; [7],achieved that of a 7% (w/v-%) fructose solution; also recorded: acts synergistically
same,sweetness of sweetener solution with enhancer compared with higher sweetener concentration,[1]; [8],achieved that of a 7% (w/v-%) sucrose solution; also recorded: acts synergistically
same,sweetness of sweetener solution with enhancer compared with higher sweetener concentration,[1]; [9],approached that of an 11% (w/v-%) sucrose solution; also recorded: acts synergistically
same,off-tastes,[1]; 8% (w/v-%) sucrose solution with 300 μM Dulc A,No off-tastes were detected
same,mean sweetness intensity score,"[1]; 8% (w/v-%) sucrose solution with 300 μM Dulc A, scale 0 to 8",6.3
same,sweetness relative to sucrose,"[2]; known values, background",30 times sweeter than sucrose
"C=C1CC23CCC4C(C)(C(=O)OC5OC(CO)C(O)C(O)C5O)CCCC4(C)C2CCC1(OC1OC(CO)C(O)C(OC2OC(CO)C(O)C(O)C2O)C1OC1OC(C)C(O)C(O)C1O)C3 (stereo not drawn) [Reb C, rebaudioside C]",sweetness of sweetener solution with enhancer compared with higher sweetener concentration,[1]; [7],close to that of a 7% (w/v-%) fructose solution; also recorded: acts synergistically
same,sweetness of sweetener solution with enhancer compared with higher sweetener concentration,[1]; [8],indistinguishable from that of a 7% (w/v-%) sucrose solution; also recorded: acts synergistically
same,sweetness of sweetener solution with enhancer compared with higher sweetener concentration,"[1]; 8% (w/v-%) sucrose solution + 150 μM Reb C, versus 8% and 11% (w/v-%) sucrose",between that of the 8% (w/v-%) sucrose solution and that of an 11% (w/v-%) sucrose solution; also recorded: significantly enhanced
same,sweetness of sweetener solution with enhancer compared with higher sweetener concentration,[1]; [9],close to that of an 11% (w/v-%) sucrose solution; also recorded: significantly enhanced
same,mean sweetness intensity score,"[1]; 8% (w/v-%) sucrose solution with 150 μM Reb C, scale 0 to 8",6.10
same,sweetness of sweetener solution with enhancer compared with higher sweetener concentration,"[3]; 7.14% w/v erythritol water solution + 285 ppm (300 μM) Reb C, versus 7.14% and 10% erythritol","significantly sweeter than the 7.14% erythritol solution alone, but did not achieve the sweetness of a 10% erythritol solution; also recorded: acts synergistically"
same,statistical significance of the sweetness enhancing effect,[3]; 8% (w/v-%) fructose solution + 300 μM Reb C,not statistically significant
same,sweetness of sweetener solution with enhancer compared with higher sweetener concentration,"[3]; 8% (w/v-%) fructose solution + 300 μM Reb C, versus 8% and 11% fructose",between that of the 8% (w/v-%) fructose solution and that of an 11% (w/v-%) fructose solution
same,sweetness of beverage with enhancer compared with higher sweetener concentration,"[3]; cola beverage buffered with citric acid, 10.39% (w/v-%) HFCS55 + 190 ppm Reb C, versus 14.29% HFCS55",significantly increases the sweetness intensity to that of 14.29% HFCS55; also recorded: synergistically enhanced
same,sweetness of beverage with enhancer compared with beverage alone,"[3]; cola beverage buffered with phosphoric acid, 10.39% (w/v-%) HFCS55 + 190 ppm Reb C",is not higher than that of 10.39% (w/v-%) HFCS55 cola beverage alone
same,sweetness of beverage with enhancer compared with higher sweetener concentration,"[3]; cola beverage buffered with phosphoric acid, 10.39% (w/v-%) HFCS55 + 310 ppm Reb C, versus 14.29% HFCS55","increased significantly the sweetness intensity of a cola beverage containing 10.39% (w/v-%) HFCS55, but did not reach the sweetness of a 14.29% (w/v-%) HFCS55 cola beverage; also recorded: enhances the sweetness intensity"
same,sweetness of beverage with enhancer compared with higher sweetener concentration,"[3]; iced tea, 8% (w/v-%) sucrose + 300 μM Reb C, versus 8% and 11% sucrose",between that of the 8% (w/v-%) solution and that of an 11% (w/v-%) sucrose solution; also recorded: enhances the sweetness intensity
same,sweetness of beverage with enhancer compared with higher sweetener concentration,"[3]; iced tea, 10.39% (w/v-%) HFCS55 + 300 μM Reb C, versus 14.29% HFCS55",indistinguishable from that of a 14.29% (w/v-%) HFCS55 (HFCS) solution; also recorded: acts synergistically
same,sweetness of beverage with enhancer compared with higher sweetener concentration,"[3]; lemon-lime soda (citric acid), 10.39% (w/v-%) HFCS55 + 190 ppm Reb C, versus 14.29% HFCS55",did not reach the sweetness of a 14.29% (w/v-%) HFCS55 solution; also recorded: synergistically enhanced
same,intrinsic sweetness in unsweetened beverage,[3]; unsweetened cola beverage,does not increase the sweetness of an unsweetened cola beverage
same,intrinsic sweetness in unsweetened beverage,[3]; unsweetened lemon-lime soda (FIG. 16),does not increase the sweetness of an unsweetened cola beverage
same,identification of the sample against water (forced-choice),"[4]; 10 ml, room temperature, five subjects",All subjects correctly identified the sample containing Reb C
same,qualitative taste description (one per subject),[4]; subjects 1 to 5,"Metallic, not sweet; also recorded: Aversive (“Nasty”); also recorded: Slight sweet, astringent; also recorded: Faintly sweet; also recorded: Slight sweet/licorice"
same,qualitative taste description (one per subject),[5],bitter and/or licorice
same,"unpleasant tastes, bitter and licorice","10 panelists; 150, 300 and 600 μM Reb C alone",barely detected
same,intrinsic sweetness,"10 panelists; 150, 300 and 600 μM Reb C, scale 0 to 8",little or no intrinsic sweetness
same,"unpleasant tastes, bitter and licorice",10 panelists; Reb C combined with sugar,undetected
C=C1C[C@@]23CC[C@H]4[C@@](C)(CCC[C@@]4(C)C(=O)O[C@@H]4O[C@H](CO)[C@@H](O)[C@H](O)[C@H]4O)[C@@H]2CC[C@]1(O[C@@H]1O[C@H](CO)[C@@H](O)[C@H](O[C@@H]2O[C@H](CO)[C@@H](O)[C@H](O)[C@H]2O)[C@H]1O[C@@H]1O[C@H](CO)[C@@H](O)[C@H](O)[C@H]1O)C3 [rebaudioside A],aftertaste among the diterpene glycosides of Stevia extracts,[2]; bitter and licorice-like aftertaste,least aftertaste
same,effect in mixtures with other sweeteners,"[6]; mixture with sucrose, sweetness intensity equivalent to 7% (w/v-%) sucrose",additive effect
same,effect in mixtures with other sweeteners,"[6]; mixtures with fructose and glucose, sweetness intensity equivalent to 3% (w/v-%) sucrose",additive effect
same,effect in mixtures with other sweeteners,"[6]; mixtures with fructose, glucose and sucrose, sweetness intensity equivalent to 5% (w/v-%) sucrose",additive effect
same,effect in mixtures with other sweeteners,"[6]; mixtures with glucose and fructose, sweetness intensity equivalent to 7% (w/v-%) sucrose",suppressive effect
same,effect in mixtures with other sweeteners,"[6]; mixtures with sucrose, sweetness intensity equivalent to 3% (w/v-%) sucrose",synergistic effect
"OC[C@H]1O[C@@](CO)(O[C@H]2O[C@H](CO)[C@@H](O)[C@H](O)[C@H]2O)[C@@H](O)[C@@H]1O [sucrose, α-D-glucopyranosyl-(1→2)-β-D-fructofuranose, reference compound]",mean sweetness intensity score,"[1]; 8% (w/v-%) sucrose solution alone (low-concentration comparator), scale 0 to 8",5.30 and 5.0
same,mean sweetness intensity score,"[1]; 11% (w/v-%) sucrose solution alone (high-concentration comparator), scale 0 to 8",6.95 and 6.7
